Measurements: EPA's ToxValDB 9.5 (doi:10.2903/j.efsa.2016.4609)
In brackets after ≈: the same amount, converted by molar mass.

Experiments:
Neomysis kadiakensis = settings: chronic/long-term; duration: 28 days; reproduction
Pimephales promelas = settings: chronic/long-term; duration: 56 days; mortality
Oryctolagus sp. = settings: developmental; development
Tagia sp. = settings: chronic/long-term; mortality
Ictalurus punctatus = settings: acute; duration: 96 hours; mortality
Rattus norvegicus = settings: for NOAEL: gavage
Apis mellifera = settings: acute, duration: 48 hours, mortality
[1] = chronic, duration: 2 years, histopathology: neoplastic

| Structure (SMILES) | NOEC (Neomysis kadiakensis) | NOEC (Pimephales promelas) | LOAEL (Oryctolagus sp.) | NOEC (Tagia sp.) | LD50 (Colinus virginianus; acute, oral, mortality) | NOEL (Colinus virginianus; reproduction developmental) | LC50 (Ictalurus punctatus) | LD50 (Rattus norvegicus; acute, oral, mortality) | LOAEL (Rattus norvegicus; [1]) | LOAEL (Rattus norvegicus; reproduction developmental, reproduction) | LD50 (Apis mellifera; dermal) | LD50 (Apis mellifera; oral, unspecified) | NOAEL (Rattus norvegicus; short-term, duration: 28 days, oral, Wistar) | NOAEL (Rattus norvegicus; subchronic, duration: 90 days, oral, hematological) |
| --- | --- | --- | --- | --- | --- | --- | --- | --- | --- | --- | --- | --- | --- | --- |
| CC(C)NC(=O)N1CC(=O)N(c2cc(Cl)cc(Cl)c2)C1=O | 0.0075 mg/L | 0.0731 mg/L | 20 mg/kg-day | 1000 mg/kg | 3780 mg/kg-day | 22.3 mg/kg-day | 3.1 µg/mL (≈ 9.39 µM) | > 2000 mg/kg-day | 6.1 mg/kg-day | 26.9 mg/kg-day | > 100 µg/piece | > 100 µg/piece | – | – |
| NC(=O)NC(=O)Nc1cc(Cl)c(O)c(Cl)c1 [N-(3,5-Dichloro-4-hydroxyphenyl)-2-imidodicarbonic diamide] | – | – | 20 mg/kg-day | – | – | – | – | – | 6.1 mg/kg-day | – | – | – | – | – |
| NC(CCC(=O)Nc1cc(Cl)cc(Cl)c1)C(=O)O (stereo unspecified) [N-(3,5-Dichlorophenyl)glutamine] | – | – | – | – | – | – | – | – | – | – | – | – | 7.5 mg/kg-day | 1 mg/kg-day |
